Assay results reported in US9932556B2, “Method for in vitro differentiation of blood circulating cells into neuronal-like cells and applications thereof” (Centre National de la Recherche Scientifique (CNRS), priority 2013, dated 2018).
Like-named read-outs stand apart in the source and are kept apart here.

Assays:
[1] = system: pluripotent macrophages; assay: in vitro differentiation of monocytes-derived pluripotent macrophages into neuronal-like cells; conditions: for effect on cells of increased concentration or number of doses: concentration increased above the recommended ones, or number of doses increased
Procedure: (§1) Isolated monocytes were centrifuged and resuspended in DMEM/10% FBS at a concentration of 550 cells/ml. M-CSF (Macrophage colony-stimulating factor) was added to resuspended cells at a concentration of 1:2000 with a stock solution at 0.1 mg/ml.
(§2) 1.2 million monocytes were plated per each 9.6 cm^2 well of a 6-well plate, 550,000 monocytes per each 3.1 cm^2 well of a 12-well plate, and 6 million monocytes per each 25 cm^2 flask. To ensure that monocytes became confluent and evenly distributed, and thus maintained a good differentiation rate, flasks and plates remained horizontal throughout the protocol, plating was done slowly by gently releasing monocytes from the pipette. Plated cells were left at room temperature for at least 15 min so that cells became fully attached to the surface of the plates or flasks, and subsequently incubated at 37° C. with 5% CO2 until day 4.
(§3) Once the tubes of steps e) and f) were at 37° C., the growth factor BHA (butylated hydroxyanizole) was added to the culture medium of monocytes at a final concentration of 50 nM, as follows: • g) adding 10 μl of 100 mM BHA (0.0089 grams of BHA+500 μL ethanol) to the 10 ml of DMEM/10% FBS of step e), thereby obtaining a 100 μM BHA/DMEM solution. Then diluting 10 μl of this 100 μM solution with a further 10 ml of DMEM/10% FBS heated at 37° C., thereby obtaining a 100 nM BHA/DMEM solution; • h) discarding the medium of the 6- and 12-well plates containing the monocytes isolated from the same subject as the PBMCs of step b); • i) adding the BHA/DMEM solution and the conditioned medium to each well of the plates in a 1:1 ratio, i.e.: • 1.5 ml of the 100 nM BHA/DMEM of step g) and 1.5 ml of the PBMCs conditioned medium of step f), for each well of a 6-well plate, and • 1 ml of the 100 nM BHA/DMEM of step g) and 1 ml of the PBMCs conditioned medium of step f), for each well of a 12-well plate; • j) incubating the plates at 37° C. with 5% CO2 until day 10. […]

[2] = system: pluripotent macrophages
Procedure: as §1, §2, §3

Row | Compound | effect on cells of increased concentration or number of doses [1] | other results
1 | COc1ccc(O)c(C(C)(C)C)c1 [BHA, Butylated hydroxyanisole] | damaged the cells | –
2 | CC1=C(/C=C/C(C)=C/C=C/C(C)=C/C(=O)O)C(C)(C)CCC1 [RA, Retinoic Acid] | damaged the cells | –
3 | IGF-1: Recombinant human Insulin Growth Factor-1 (Peprotech) | – | effect on cells of increased concentration or number of doses [2]: damaged the cells
4 | IGF-2: Insulin growth factor-2, exogenous factor tested as replacement | – | cell viability ([1]; replacing IGF-1 by this factor): did not improve cell viability
